This is an account of results in ChEMBL document CHEMBL1201862, “PubChem BioAssay data set” (2004).

Experiment [1] deals with BJ. The experiment in a line: cells. Type of experiment: functional, cell-based. As to conditions: Homo sapiens.
In experiment [2] the target is Luciferin 4-monooxygenase (Photinus pyralis, UniProt P08659). Briefly: Counter Screen for Luciferase-based Assay Positives. [Related pubchem assays: 620, 618, 411 ]. On the technique in general: The purpose of a counterscreen is to sort out artefacts and off-target activity.
Luciferin 4-monooxygenase, sequence (P08659 whole entry): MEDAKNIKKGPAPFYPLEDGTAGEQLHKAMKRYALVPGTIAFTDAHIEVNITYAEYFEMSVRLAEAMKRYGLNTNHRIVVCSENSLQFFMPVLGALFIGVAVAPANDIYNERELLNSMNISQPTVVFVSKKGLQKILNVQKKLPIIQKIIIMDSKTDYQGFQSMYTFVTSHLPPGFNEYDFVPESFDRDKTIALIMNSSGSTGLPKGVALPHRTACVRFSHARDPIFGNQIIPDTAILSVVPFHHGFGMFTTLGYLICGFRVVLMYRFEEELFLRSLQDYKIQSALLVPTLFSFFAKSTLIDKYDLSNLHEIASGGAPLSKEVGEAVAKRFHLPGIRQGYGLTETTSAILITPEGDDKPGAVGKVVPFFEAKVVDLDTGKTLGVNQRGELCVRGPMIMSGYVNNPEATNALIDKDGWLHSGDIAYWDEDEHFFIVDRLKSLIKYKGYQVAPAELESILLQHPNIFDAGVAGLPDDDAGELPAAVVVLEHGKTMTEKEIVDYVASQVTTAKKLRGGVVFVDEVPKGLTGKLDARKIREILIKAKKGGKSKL
In experiment [3] the test system is HEK293. Briefly: cells. It counts as functional, cell-based. The conditions noted are these: Homo sapiens.
The subject of experiment [4] is HEK293. The experiment in a line: inhibition of NOD1-driven NF-kB reporter – cell-based, luminescence, uHTS, primary screen (AID 1578). Type of experiment: functional. As to conditions: Homo sapiens.
For another experiment, the target named is T1, Protein RecA (Mycobacterium tuberculosis, UniProt P9WHJ3).
T1 sequence (P9WHJ3 whole entry): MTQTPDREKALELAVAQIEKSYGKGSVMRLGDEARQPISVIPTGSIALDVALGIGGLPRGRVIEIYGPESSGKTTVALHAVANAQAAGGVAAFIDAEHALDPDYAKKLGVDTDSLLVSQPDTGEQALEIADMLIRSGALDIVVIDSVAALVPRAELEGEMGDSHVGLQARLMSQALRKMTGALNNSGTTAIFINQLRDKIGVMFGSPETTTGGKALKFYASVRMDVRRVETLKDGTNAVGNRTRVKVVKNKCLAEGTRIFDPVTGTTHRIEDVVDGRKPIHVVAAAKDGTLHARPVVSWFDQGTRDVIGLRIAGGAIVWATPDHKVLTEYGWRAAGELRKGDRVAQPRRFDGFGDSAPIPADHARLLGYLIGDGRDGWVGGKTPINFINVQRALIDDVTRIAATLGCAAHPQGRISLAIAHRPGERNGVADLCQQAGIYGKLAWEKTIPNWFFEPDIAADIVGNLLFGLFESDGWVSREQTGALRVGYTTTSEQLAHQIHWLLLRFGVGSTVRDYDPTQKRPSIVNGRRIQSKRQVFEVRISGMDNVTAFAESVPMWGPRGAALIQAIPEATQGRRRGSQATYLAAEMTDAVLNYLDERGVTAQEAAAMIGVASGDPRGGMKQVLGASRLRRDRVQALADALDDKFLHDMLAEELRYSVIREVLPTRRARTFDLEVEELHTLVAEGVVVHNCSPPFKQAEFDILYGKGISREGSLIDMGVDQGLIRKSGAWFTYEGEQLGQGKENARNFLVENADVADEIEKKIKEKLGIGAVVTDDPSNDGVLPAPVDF
Briefly: Fluorescence Cell-Free Homogeneous Dose Retest to Identify Inhibitors of RecA-Intein Splicing Activity. [Related pubchem assays (depositor defined):AID2097, AID2223, AID489010, AID492950]. It counts as functional.

Experiment [5] deals with BJ. Briefly: BJ-TERT fibroblast viability loss – cell-based, RAS-independent, luminescence, dose response (AID 1933). It counts as functional. The conditions noted are these: Homo sapiens.
Experiment [6] relates to HEK293. Briefly: NOD2 signaling inhibitors in MDP-stimulated cells, cell-based, uHTS, luminescence (AID 2001). Type of experiment: functional. As to conditions: Homo sapiens.
Experiment [7] is described as follows: reduced cellular PGC1a acetyl-lysine signal – cell-based, cherry-picked samples, dose response (AID 720514).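 Note: potency may reflect raised or lowered acetylation signal.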 Type of experiment: functional.
Experiment [8] addresses T2, Replicative DNA helicase DnaB (Mycobacterium tuberculosis, UniProt P9WMR3).
T2 sequence (P9WMR3 whole entry): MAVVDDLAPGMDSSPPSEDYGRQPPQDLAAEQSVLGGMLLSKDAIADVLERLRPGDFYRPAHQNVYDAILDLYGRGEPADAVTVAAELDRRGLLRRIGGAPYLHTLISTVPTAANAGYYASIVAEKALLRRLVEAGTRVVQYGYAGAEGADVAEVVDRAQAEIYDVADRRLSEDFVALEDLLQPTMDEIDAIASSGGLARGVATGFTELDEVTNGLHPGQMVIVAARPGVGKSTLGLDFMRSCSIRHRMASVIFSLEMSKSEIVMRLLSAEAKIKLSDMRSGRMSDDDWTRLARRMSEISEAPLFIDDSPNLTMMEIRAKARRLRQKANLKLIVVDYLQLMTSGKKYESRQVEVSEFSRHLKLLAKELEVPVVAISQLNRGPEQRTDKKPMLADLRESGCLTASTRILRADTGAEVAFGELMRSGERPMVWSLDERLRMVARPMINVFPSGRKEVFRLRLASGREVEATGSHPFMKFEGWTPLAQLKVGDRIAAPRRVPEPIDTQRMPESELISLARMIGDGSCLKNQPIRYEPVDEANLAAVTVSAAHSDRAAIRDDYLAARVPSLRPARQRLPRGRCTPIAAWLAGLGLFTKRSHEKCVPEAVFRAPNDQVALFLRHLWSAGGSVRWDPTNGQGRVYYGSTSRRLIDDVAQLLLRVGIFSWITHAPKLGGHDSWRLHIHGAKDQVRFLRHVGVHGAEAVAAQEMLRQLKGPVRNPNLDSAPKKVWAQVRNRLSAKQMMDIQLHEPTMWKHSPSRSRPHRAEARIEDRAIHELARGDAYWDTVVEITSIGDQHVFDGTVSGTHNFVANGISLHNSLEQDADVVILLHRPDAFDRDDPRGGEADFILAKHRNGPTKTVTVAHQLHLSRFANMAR
The experiment in a line: DnaB intein splicing inhibitors, dose response, biochemical, cell-free fluorescence (AID 449749). It counts as functional.

Experiment [9] is described as follows: DRD fibroblast viability loss – cell-based, non-viral oncogenic, luminescence, dose response (AID 1934). Type of experiment: functional. The conditions noted are these: Homo sapiens.
Experiment [10] has as its target T3, E3 ubiquitin-protein ligase XIAP (Homo sapiens, UniProt P98170). Briefly: Counter Screen using XIAP-Bir3 for Chemical Antagonists of Bir1/2 domains of IAP-family anti-apoptotic proteins. [Related pubchem assays (depositor defined):AID1018, AID1449, AID1514, AID1638, AID1749, AID1750, AID488957, AID488963].
Experiment [11] can be described thus: microbe, parasite or virus in culture. As to conditions: Mycobacterium tuberculosis. Type of experiment: functional.
The test system of experiment [12] is BJ. Briefly: growth inhibition of engineered Ras-driven BJ cells – cell-based, alamar blue fluorescence, cherrypicked samples, dose response (AID 2631).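 Note: confirmatory dose-response assay in RAS-dependent BJ fibroblasts engineered with TERT, LT and ST, with cytotoxicity read by fluorescence.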 It counts as functional. As to conditions: Homo sapiens. Background: The colour change of resazurin is a common sign of viable cells or microbes.
The target of experiment [13] is T3, E3 ubiquitin-protein ligase XIAP. Briefly: small molecules displacing peptide from XIAP – biochemical, IAP family, fluorescence polarization (AID 1018). It counts as functional. Background: Fluorescence polarisation rises when a labelled molecule tumbles more slowly, as on binding a larger partner.
Experiment [14] has as its system BJ. Briefly: BJ-TERT-LT-ST fibroblast viability loss – cell-based, RAS-independent, luminescence, dose response (AID 1935).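 Note: BJ fibroblasts immortalized with TERT plus LT and ST oncogenes.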 Type of experiment: functional. The conditions noted are these: Homo sapiens.
For experiment [15], the system named is HEK293. Briefly: cells. It counts as functional, cell-based. As to conditions: Homo sapiens. The source holds these as a separate data set.
The test system of another experiment is HT-1080. Briefly: HT1080 cell viability loss – fluorescence readout (AID 620). The conditions noted are these: Homo sapiens. Type of experiment: functional, cell-based.
Experiment [16] in a line: OVCAR8 cell viability loss – plate reader, dry powder samples, PAX8 project, dose response (AID 743197). Type of experiment: functional, cell-based. As to conditions: OVCAR-8.
Experiment [17] can be described thus: OVCAR-3 cell viability loss – plate reader, dry powder samples, PAX8 inhibitor project, dose response (AID 743044). It counts as functional, cell-based.
A further experiment deals with Paired box protein Pax-8 (Homo sapiens, UniProt Q06710). The experiment in a line: PAX8 transcriptional activity inhibition in RMG-I – RMG-I cells, luciferase, cherry-pick, dose response (AID 687027).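 Note: luciferase reporter driven by Pax8 target thyroperoxidase promoter measured by SteadyGlo luminescence.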 Type of experiment: functional, cell-based.
Paired box protein Pax-8, sequence (Q06710 whole entry): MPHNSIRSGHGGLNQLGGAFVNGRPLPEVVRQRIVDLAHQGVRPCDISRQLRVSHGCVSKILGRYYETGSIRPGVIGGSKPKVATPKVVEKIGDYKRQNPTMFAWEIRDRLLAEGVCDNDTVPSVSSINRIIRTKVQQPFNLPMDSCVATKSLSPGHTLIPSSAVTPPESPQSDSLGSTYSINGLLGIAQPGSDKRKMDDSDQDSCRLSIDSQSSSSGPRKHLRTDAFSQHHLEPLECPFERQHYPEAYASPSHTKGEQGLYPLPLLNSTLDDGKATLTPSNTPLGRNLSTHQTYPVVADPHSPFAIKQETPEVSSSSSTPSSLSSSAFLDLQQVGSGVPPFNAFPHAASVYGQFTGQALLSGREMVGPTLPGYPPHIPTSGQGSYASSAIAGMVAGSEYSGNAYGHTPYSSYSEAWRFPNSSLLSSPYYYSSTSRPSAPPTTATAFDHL
Experiment [18] in a line: A2780 cell killing – plate reader, dry powder samples, cytotoxicity control, dose response (AID 743046). Type of experiment: functional, cell-based.
Experiment [19] in a line: P. falciparum Dd2 growth inhibitors, dose response, SYBR Green, cherry-picked samples (AID 1159567). It counts as functional, cell-based.
A short description of experiment [20]: inhibition of ADAM10 peptide cleavage – biochemical, FRET peptide substrate, recombinant human ADAM10, selectivity assay for ADAM17 exosite inhibitor project, dose response (AID 743259).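 Note: ADAM10 enzyme cleaving a FRET peptide substrate.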
For experiment [21], the target named is Disintegrin and metalloproteinase domain-containing protein 17 (Homo sapiens, UniProt P78536). Briefly: exosite inhibitors of ADAM17, dose response, biochemical (AID 743260).
Disintegrin and metalloproteinase domain-containing protein 17, sequence (P78536 whole entry, the tested form may be a part): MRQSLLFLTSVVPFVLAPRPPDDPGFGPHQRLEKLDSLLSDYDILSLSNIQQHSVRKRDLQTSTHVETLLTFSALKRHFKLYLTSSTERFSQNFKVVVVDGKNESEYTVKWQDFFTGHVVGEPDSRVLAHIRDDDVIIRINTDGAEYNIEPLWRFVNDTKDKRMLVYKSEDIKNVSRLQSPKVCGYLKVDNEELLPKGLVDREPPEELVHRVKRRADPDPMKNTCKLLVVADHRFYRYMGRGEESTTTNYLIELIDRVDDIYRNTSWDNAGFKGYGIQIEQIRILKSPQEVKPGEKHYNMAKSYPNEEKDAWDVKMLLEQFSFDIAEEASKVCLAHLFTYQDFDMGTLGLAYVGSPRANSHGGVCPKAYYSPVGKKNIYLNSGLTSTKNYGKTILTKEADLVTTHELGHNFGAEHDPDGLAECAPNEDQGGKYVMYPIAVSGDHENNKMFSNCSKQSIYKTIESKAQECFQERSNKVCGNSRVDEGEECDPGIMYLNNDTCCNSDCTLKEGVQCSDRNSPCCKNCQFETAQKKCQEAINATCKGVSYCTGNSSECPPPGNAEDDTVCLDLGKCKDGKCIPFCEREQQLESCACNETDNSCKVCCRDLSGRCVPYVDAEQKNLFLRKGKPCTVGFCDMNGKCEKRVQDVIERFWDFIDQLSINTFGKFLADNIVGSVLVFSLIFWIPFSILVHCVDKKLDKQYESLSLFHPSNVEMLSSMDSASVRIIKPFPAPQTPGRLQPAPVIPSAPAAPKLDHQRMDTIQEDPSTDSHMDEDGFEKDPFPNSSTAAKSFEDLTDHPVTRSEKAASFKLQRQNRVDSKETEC
Experiment [22] in a line: blockers of HIV-1 ZM109 envelope-driven cell-cell fusion – HeLa effector, CEM target cells, luciferase, cherry-pick, dose response (AID 652058).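 Note: luciferase signal from HIV-1 Env mediated cell-cell fusion of effector and target cells.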 It counts as functional, cell-based.
Experiment [23] can be described thus: blockers of HIV-1 envelope-mediated cell-cell fusion – cherry-pick, dose response (AID 652057). Type of experiment: functional, cell-based.
Experiment [24] in a line: HIV-1 AD8 envelope cell-cell fusion blockers – cherry-pick, dose response (AID 652062).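 Note: luciferase signal from cell-cell fusion driven by HIV-1 clade B AD8 Env; potency is for inhibitors of fusion seen as a drop in luminescence.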 Type of experiment: functional, cell-based.
Experiment [25] can be described thus: toxicity to human hepatoma HepG2 cells – cell-based, cherry-picked samples, cytotoxicity control, dose response (AID 1159577). It counts as functional.
Experiment [26] has as its target G-protein coupled receptor 183 (Homo sapiens, UniProt P32249). The experiment in a line: SAR confirmation of small molecule antagonists of the EBI2 receptor via a luminescent beta-arrestin assa. Type of experiment: functional.
Experiment [27] can be described thus: toxicity to human HepG2 hepatoma cells – cell-based, plate reader, dry powder samples, cytotoxicity control, dose response (AID 1159569).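 Note: inhibitor potency with signal falling toward the positive control level.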 It counts as functional.
Experiment [28] can be described thus: Dd2 malaria parasite growth inhibition potency – SYBR Green, dry powder samples, dose response (AID 1159566).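 Note: potency for growth inhibition with lower SYBR green DNA signal.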 Type of experiment: functional, cell-based.
Experiment [29] is described as follows: growth inhibition of PfATP4-mutant resistant parasites – NITD609-resistant line, SYBR Green, dry powder, dose response (AID 1159571).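 Note: parasites synchronized at ring stage by sorbitol before testing.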 Type of experiment: functional, cell-based.
Experiment [30] can be described thus: growth inhibition of yeast DHODH-expressing 3D7 parasites – SYBR Green, dry powder samples, dose response (AID 1159570).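 Note: parasite growth measured after 72 hours of compound exposure.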 Type of experiment: functional, cell-based.

The source made the active and inactive calls.

T3 sequence (P98170 whole entry): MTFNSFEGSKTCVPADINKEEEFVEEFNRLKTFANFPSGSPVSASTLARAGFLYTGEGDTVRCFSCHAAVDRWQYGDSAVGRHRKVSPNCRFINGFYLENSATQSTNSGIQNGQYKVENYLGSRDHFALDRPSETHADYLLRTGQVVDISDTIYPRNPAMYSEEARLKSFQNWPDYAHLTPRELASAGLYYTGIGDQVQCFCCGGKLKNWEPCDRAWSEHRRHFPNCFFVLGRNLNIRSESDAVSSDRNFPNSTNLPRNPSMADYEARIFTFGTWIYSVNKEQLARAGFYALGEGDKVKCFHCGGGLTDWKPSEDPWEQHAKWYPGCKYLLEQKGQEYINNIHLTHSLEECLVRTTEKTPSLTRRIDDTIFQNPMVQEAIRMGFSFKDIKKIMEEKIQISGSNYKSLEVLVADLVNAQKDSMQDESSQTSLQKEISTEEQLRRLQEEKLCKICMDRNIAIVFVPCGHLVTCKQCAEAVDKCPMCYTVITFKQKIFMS
G-protein coupled receptor 183, sequence (P32249 whole entry): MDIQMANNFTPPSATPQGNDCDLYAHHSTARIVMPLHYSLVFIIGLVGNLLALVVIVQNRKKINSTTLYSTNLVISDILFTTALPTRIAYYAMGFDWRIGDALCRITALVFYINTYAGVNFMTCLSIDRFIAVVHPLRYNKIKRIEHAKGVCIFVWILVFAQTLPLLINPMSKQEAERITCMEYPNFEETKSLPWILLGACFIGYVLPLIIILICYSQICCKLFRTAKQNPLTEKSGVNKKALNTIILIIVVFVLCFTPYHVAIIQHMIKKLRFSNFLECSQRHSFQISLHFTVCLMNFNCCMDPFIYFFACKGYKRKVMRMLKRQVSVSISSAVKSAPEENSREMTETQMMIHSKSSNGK

One may read the EC50 as the concentration that produces a half-maximal response. The IC50 is the concentration at which inhibition is half-maximal. The term AC50 denotes the concentration giving half of the maximal activity seen. For `O=S(=O)(c1ccc(Cl)cc1)c1snnc1-c1ccccc1`, the EC50 is 3.53 µM (active) in the experiment with BJ [1]; 3.73 µM (active) in experiment [2]; 10.7 µM (active) in the experiment on HEK293 [4]; 9.19 µM (active) on Protein RecA; 2.39 µM (active) in the experiment with BJ [5]; 4.96 µM (active) in experiment [9]. Moreover, the EC50 was 0.51 µM (active) with BJ [12], 3.25 µM (inconclusive) in the experiment with BJ [14] and 20.7 µM (active) with HT-1080. For the same molecule, the IC50 in the experiment on HEK293 [3] is 2.17 µM (active); in the experiment on HEK293 [6], 6.92 µM (inactive); in experiment [10], > 100 µM (inactive); in experiment [13], > 100 µM (not active); in the experiment on HEK293 [15], > 20 µM (inactive). For the same molecule, the AC50 is 7.86 µM (active) in [7] and 23.9 µM (active) in [8]. The CC50 in experiment [11] is 2.44 µM (active).
Consider `CC(C)NC(=O)N1Cc2cc(C(=O)NCC(F)(F)F)nc(-c3cccc(-c4cc5ccccc5o4)c3)c2[C@H]1CCO`, for which the AC50 in [16] is 58.2 µM (active); in experiment [17], 38.2 µM (active); at Paired box protein Pax-8, 7.2 µM (active); in [18] it was 16.8 µM (active); in experiment [19], 5.15 µM (active).
As for `COc1ccc(Cn2cc(CN3CCS(=O)(=O)N(Cc4ccc(-c5cccc(Cl)c5)cc4)C(C)C3=O)nn2)cc1` (stereo not drawn), the IC50 in experiment [20] and in [21] was > 69.5 µM (inactive) in each case.
With `O=C(Nc1ccc(Cl)c(Cl)c1)N[C@@H]1CC[C@@H](CCn2cc(C3CCCCC3)nn2)O[C@@H]1CO`, the AC50 was 0.538 µM (active) in experiment [22]; 46.9 µM (active) in experiment [23]; 57.9 µM (active) in [24]; 17.8 µM (active) in experiment [25]; 12.4 µM (active) in [19].
Take `O=C(/C=C/c1ccc(Br)cc1)N1CCN(Cc2ccccc2F)CC1`: the IC50 in experiment [26] is 0.0287 µM (active).
On to `C[C@H](CO)N1C[C@H](C)[C@@H](CN(C)S(=O)(=O)c2ccc(Cl)cc2)OCCCC[C@H](C)Oc2ccc(NS(=O)(=O)c3ccc(F)cc3)cc2C1=O`, for which the values for the half-maximal activity concentration (AC50) (in experiment [17]; on Paired box protein Pax-8; in [18]) were 36 µM (active), 4.45 µM (active) and 29.1 µM (active), respectively.
In the case of `OC[C@@H]1[C@@H](c2ccccc2)C2(CN(CC3CC3)C2)N1Cc1ccc(F)cc1`, the AC50 in experiment [27] is 43.6 µM (active); in experiment [28] it was 1.09 µM (active); in [29], 1.52 µM (active); in experiment [19], 0.919 µM (active); in [30] it was 1.98 µM (active).
